According to article PMC12440375 (Biochemistry, 2025):
Read-outs that look alike come from different tables or passages of the source.

Experiments:
[1] = biological target: T1, EmrE (Escherichia coli, UniProt P23895, K22R); assay: fluorescence polarization; assay type: binding
T1 sequence (P23895 1-110 K22R): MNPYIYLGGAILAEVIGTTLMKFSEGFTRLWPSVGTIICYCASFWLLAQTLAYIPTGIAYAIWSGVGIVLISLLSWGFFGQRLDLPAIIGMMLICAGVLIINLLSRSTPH

[2] = biological target: T2, EmrE (Escherichia coli, UniProt P23895); assay: fluorescence polarization; assay type: binding
T2 sequence (P23895 1-110): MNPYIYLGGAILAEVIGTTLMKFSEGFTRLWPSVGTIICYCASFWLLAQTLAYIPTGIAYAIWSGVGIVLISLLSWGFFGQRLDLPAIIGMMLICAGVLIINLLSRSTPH

[3] = biological target: T3, EmrE (Escherichia coli, UniProt P23895, K22A); assay: fluorescence polarization; assay type: binding
T3 sequence (P23895 1-110 K22A): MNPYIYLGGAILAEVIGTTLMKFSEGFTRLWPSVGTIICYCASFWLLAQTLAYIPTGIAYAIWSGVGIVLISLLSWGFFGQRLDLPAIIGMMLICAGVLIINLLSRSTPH

[4] = biological target: T3, EmrE; assay: TROSY-HSQC NMR; assay type: binding
[5] = biological target: the molecule itself; assay: native MS
[6] = biological target: the molecule itself; assay: native MS; remark: listed apart in the source

Work on `CC1=CC(C)=[N+]2C1=C(c1ccc3c(c1)OCCOCCOCCOCCOCCO3)c1c(C)cc(C)n1[B-]2(F)F` [benzo[18]crown-6 BODIPY, 10-(2,3,5,6,8,9,11,12,14,15-decahydrobenzo[b][1,4,7,10,13,16]Hexaoxacyclooctadecin-18-yl)-5,5-difluoro-1,3,7,9-tetramethyl-5H-4l4,5l4-dipyrrolo[1,2-c:2′,1′-f][1,3,2]diazaborinine] yielded a Kd [1] of 226 nM, a Kd [2] of 97.4 nM and a Kd [3] of 154 nM.

With `c1ccc([P+](c2ccccc2)(c2ccccc2)c2ccccc2)cc1` [tetraphenylphosphonium bromide] the “TROSY-HSQC NMR” value [4] was “a portion of the drug-free K22A-EmrE was saturated with the substrate tetraphenylphosphonium bromide (TPP+)”.

B1: Saposin A (natural protein)
chain: SLPCDICKDVVTAAGDMLKDNATEEEILVYLEKTCDWLPKPNMSASCKEIVDSYLPVILDIIKGEMSRPGEVCSALNLCESLQ
B1 was tested, and the “stoichiometry N” value [5] was 4 and the “stoichiometry N” value [6] was 2.

B2: EmrE (WT-EmrE), multidrug efflux pump from Escherichia coli (natural protein)
chain: MNPYIYLGGAILAEVIGTTLMKFSEGFTRLWPSVGTIICYCASFWLLAQTLAYIPTGIAYAIWSGVGIVLISLLSWGFFGQRLDLPAIIGMMLICAGVLIINLLSRSTPH
For B2, the “stoichiometry N” value [6] was 2.
